Assay results taken from patent US11242361B2 (Proteostasis Therapeutics, Inc., priority 2013, dated 2022).
pIC50: −log10 of the molar value.

These compounds were tested against USP14 (Homo sapiens (Human), UniProt P54578) (assay: USP14 Inhibition Assay). Details: average value from a minimum of two experimental determinations, read-out: IC50 Category.
Type: biochemical
Protocol: Example 17: USP14 Inhibition Assay
“I” in the Table below designates an IC50 of >5 μM, “II” in the Table below designates and IC50 between 0.5 and 5 μM, and “III” designates an IC50<0.5 μM. The IC50 values in the Table below represent the average value from a minimum of two experimental determinations.

Chain of USP14 (P54578 whole entry, looked up): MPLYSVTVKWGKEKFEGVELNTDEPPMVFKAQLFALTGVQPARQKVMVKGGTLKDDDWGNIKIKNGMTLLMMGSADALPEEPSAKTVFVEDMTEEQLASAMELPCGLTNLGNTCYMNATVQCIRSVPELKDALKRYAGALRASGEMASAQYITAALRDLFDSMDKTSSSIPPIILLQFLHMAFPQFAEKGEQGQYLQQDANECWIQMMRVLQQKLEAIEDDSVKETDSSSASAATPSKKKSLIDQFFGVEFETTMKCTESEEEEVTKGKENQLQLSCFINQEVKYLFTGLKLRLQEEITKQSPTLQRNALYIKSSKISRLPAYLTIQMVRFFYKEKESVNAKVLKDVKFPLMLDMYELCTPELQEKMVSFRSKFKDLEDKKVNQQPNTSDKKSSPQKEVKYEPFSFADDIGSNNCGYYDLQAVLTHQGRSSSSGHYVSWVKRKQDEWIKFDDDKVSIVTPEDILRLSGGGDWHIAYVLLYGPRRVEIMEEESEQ

Row | Compound | pIC50
1 | Cc1c(C(=O)CN2CC[C@H](O)[C@H](O)C2)c2ncc(Br)cc2n1-c1ccc(C#N)cc1 [Compound 356] | > 6.30
2 | Cc1c(C(=O)CN2[C@H](C)CCC[C@H]2C)c2ncc(Br)cc2n1-c1ccc(C#N)cc1 [Compound 373] | 5.30 to 6.30
3 | COc1ccc2c(n1)c(C(=O)CN1CCCCC1)c(C)n2-c1ccc(C#N)cc1 [Compound 177, 4-(5-Methoxy-2-methyl-3-(2-(piperidin-1-yl)acetyl)-1H-pyrrolo[3,2-b]pyridin-1-yl)benzonitrile] | > 6.30
4 | Cc1c(C(=O)CN2CCC(O)(C(F)(F)F)CC2)c2ccccc2n1-c1ccc(Cl)cc1 [Compound 390] | < 5.30
5 | Cc1cc2c(nc1C)c(C(=O)CN1CCCCC1)c(C)n2-c1ccc(C#N)cc1 [Compound 195] | > 6.30
6 | Cc1c(C(=O)CN2CCCCC2)c2ccc(CC(=O)O)cc2n1-c1ccc(C#N)cc1 [Compound 198, 2-(1-(4-Cyanophenyl)-2-methyl-3-(2-(piperidin-1-yl)acetyl)-1H-indol-6-yl)acetic Acid] | > 6.30
7 | Cc1c(C(=O)CN2C[C@@H](C)C[C@H](C)C2)c2ncc(Br)cc2n1-c1ccc(C#N)cc1 [Compound 349] | > 6.30
8 | Cc1c(C(=O)CN2CCCCC2)c2ccc(O)cc2n1-c1ccc(Cl)cc1 [Compound 148, 1-(1-(4-Chlorophenyl)-6-hydroxy-2-methyl-1H-indol-3-yl)-2-(piperidin-1-yl)ethan-1-one] | 5.30 to 6.30
9 | COCCOc1cnc2c(C(=O)CN3CCC(OC)CC3)c(C)n(-c3ccc(Cl)cc3)c2c1 [Compound 363] | > 6.30
10 | Cc1c(C(=O)CN2CCCCC2)c2ncc(CN3CCCC3)cc2n1-c1ccc(C#N)cc1 [Compound 360, 4-(2-Methyl-3-(2-(piperidin-1-yl)acetyl)-6-(pyrrolidin-1-ylmethyl)-1H-pyrrolo[3,2-b]pyridin-1-yl)benzonitrile] | > 6.30
11 | CC(=O)OCCc1ccc2c(C(=O)CN3CCCCC3)c(C)n(-c3ccc(C#N)cc3)c2c1 [Compound 205, 2-(1-(4-Cyanophenyl)-2-methyl-3-(2-(piperidin-1-yl)acetyl)-1H-indol-6-yl)ethyl Acetate] | > 6.30
12 | Cc1c(C(=O)CN2CCC(O)CC2)c2ncc(CCNS(C)(=O)=O)cc2n1-c1ccc(Cl)cc1 [Compound 342, N-(2-(1-(4-Chlorophenyl)-3-(2-(4-hydroxypiperidin-1-yl)acetyl)-2-methyl-1H-pyrrolo[3,2-b]pyridin-6-yl)ethyl)methanesulfonamide] | > 6.30
13 | Cc1c(C(=O)CN2CCCCC2(C)C)c2ncc(Br)cc2n1-c1ccc(C#N)cc1 [Compound 318] | > 6.30
14 | Cc1c(C(=O)CN2CCCCC2)c2cc(F)ccc2n1-c1ccc(Cl)cc1 [Compound 98] | > 6.30
15 | Cc1c(C(=O)CN2CCC(O)CC2)c2ncccc2n1-c1ccc(C#N)cc1 [Compound 335] | > 6.30
16 | Cc1c(C(=O)CN2CCCCC2)c2ncc(CC(=O)N3CCCC3)cc2n1-c1ccc(C#N)cc1 [Compound 298, 4-(2-Methyl-6-(2-oxo-2-(pyrrolidin-1-yl)ethyl)-3-(2-(piperidin-1-yl)acetyl)-1H-pyrrolo[3,2-b]pyridin-1-yl)benzonitrile] | > 6.30
17 | Cc1c(C(=O)CN2CCCCC2)c2ccc(CN)cc2n1-c1ccc(Cl)cc1 [Compound 185, 1-(6-(Aminomethyl)-1-(4-chlorophenyl)-2-methyl-1H-indol-3-yl)-2-(piperidin-1-yl)ethan-1-one] | > 6.30
18 | Cc1c(C(=O)CN2CCCC2)c2ccccc2n1-c1ccc(Cl)cc1 [Compound 88] | > 6.30
19 | Cc1c(C(=O)CN2CCCCO2)c2ncc(Br)cc2n1-c1ccc(C#N)cc1 [Compound 345] | < 5.30
20 | CC(C)c1c(C(=O)CN2CCCCC2)c2ncccc2n1-c1ccc(C#N)cc1 [Compound 336] | < 5.30
21 | CCOC(=O)CNCC1CCN(CC(=O)c2c(C)n(-c3ccc(C#N)cc3)c3cc(Br)cnc23)CC1 [Compound 368] | 5.30 to 6.30
22 | Cc1c(C(=O)CN2CCC(O)CC2)c2ncc(Br)cc2n1-c1ccc(C#N)cc1 [Compound 353] | > 6.30
23 | Cc1c(C(=O)CN2CCCCC2)c2nc(-n3nccn3)ccc2n1-c1ccc(C#N)cc1 [Compound 208, 4-(2-Methyl-3-(2-(piperidin-1-yl)acetyl)-5-(2H-1,2,3-triazol-2-yl)-1H-pyrrolo[3,2-b]pyridin-1-yl)benzonitrile] | > 6.30
24 | CCOC(=O)C[C@@H](C)c1cnc2c(C(=O)CN3CCCCC3)c(C)n(-c3ccc(C#N)cc3)c2c1 [Compound 350, Ethyl (R)-3-(1-(4-Cyanophenyl)-2-methyl-3-(2-(piperidin-1-yl)acetyl)-1H-pyrrolo[3,2-b]pyridin-6-yl)butanoate] | > 6.30
25 | Cc1c(C(=O)CN2CCCCC2)c2ccc(CCC(=O)O)cc2n1-c1ccc(C#N)cc1 [Compound 201, 3-(1-(4-Cyanophenyl)-2-methyl-3-(2-(piperidin-1-yl)acetyl)-1H-indol-6-yl)propanoic Acid] | > 6.30
26 | Cc1c(C(O)CN2CCCCC2)c2ccccc2n1-c1ccc(Cl)cc1 (stereo not drawn) [Compound 106, 1-(1-(4-Chlorophenyl)-2-methyl-1H-indol-3-yl)-2-(piperidin-1-yl)ethan-1-ol] | < 5.30
27 | Cc1cnc2c(C(=O)CN3CCCCC3)c(C)n(-c3ccc(C#N)cc3)c2c1 [Compound 184, 4-(2,6-Dimethyl-3-(2-(piperidin-1-yl)acetyl)-1H-pyrrolo[3,2-b]pyridin-1-yl)benzonitrile] | > 6.30

Row | Compound | pIC50
28 | Cc1c(C(=O)CN2CCCCC2)c2ccc(C#N)cc2n1-c1ccc(C#N)cc1 [Compound 175] | > 6.30
29 | Cc1c(C(=O)CN2[C@@H](C)CCC[C@@H]2C)c2ncc(Br)cc2n1-c1ccc(C#N)cc1 [Compound 374] | 5.30 to 6.30
30 | Cc1c(C(=O)CN2CCC(O)CC2)c2ccccc2n1-c1ccncc1 [Compound 396] | < 5.30
31 | Cc1c(C(=O)CN2CCCCC2)c2ncccc2n1-c1ccc(C#N)nc1 [Compound 181, 5-(2-Methyl-3-(2-(piperidin-1-yl)acetyl)-1H-pyrrolo[3,2-b]pyridin-1-yl)picolinonitrile] | > 6.30
32 | N#Cc1ccc(-n2c(C(F)(F)F)c(C(=O)CN3CCCCC3)c3ncccc32)cc1 [Compound 372] | < 5.30
33 | [2H]C1([2H])N(CC(=O)c2c(C)n(-c3ccc(C#N)cc3)c3cc(Br)cnc23)C([2H])([2H])C([2H])([2H])C([2H])([2H])C1([2H])[2H] [Compound 320] | > 6.30
34 | Cc1c(C(=O)CN2CCC(O)CC2)c2ccccc2n1-c1ccc(Cl)cc1 [Compound 86] | > 6.30
35 | CCCOc1cnc2c(C(=O)CN3CCC(O)CC3)c(C)n(-c3ccc(C#N)cc3)c2c1 [Compound 347] | > 6.30
36 | CC(=O)NCc1ccc2c(c1)c(C(=O)CN1CCCCC1)c(C)n2-c1ccc(C#N)cc1 [Compound 183, N-((1-(4-Cyanophenyl)-2-methyl-3-(2-(piperidin-1-yl)acetyl)-1H-indol-5-yl)methyl)acetamide] | > 6.30
37 | Cc1c(C(=O)CN2CCCCC2)c2cccnc2n1-c1ccc(C#N)cc1 [Compound 141, 4-(2-Methyl-3-(2-(piperidin-1-yl)acetyl)-1H-pyrrolo[2,3-b]pyridin-1-yl)benzonitrile] | 5.30 to 6.30
38 | Cc1c(C(=O)CN2CCC(CN(C)C)CC2)c2ncc(Br)cc2n1-c1ccc(C#N)cc1 [Compound 352] | > 6.30
39 | Cc1c(C(=O)CN2CCC(CO)CC2)c2ncc(Br)cc2n1-c1ccc(C#N)cc1 [Compound 312] | 5.30 to 6.30
40 | CCOC(=O)CC1CCCN(CC(=O)c2c(C)n(-c3ccc(C#N)cc3)c3cc(Br)cnc23)C1 (stereo not drawn) [Compound 366] | 5.30 to 6.30
41 | Cc1c(C(=O)CN2CCCCC2)c2cc([N+](=O)[O-])ccc2n1-c1ccc(Cl)cc1 [Compound 150] | 5.30 to 6.30
42 | Cc1c(C(=O)CN2CCN(C)CC2)c2ncc(Br)cc2n1-c1ccc(C#N)cc1 [Compound 330] | < 5.30
43 | O=C(CN1CCCCC1)c1c(C2CC2)n(-c2ccc(Cl)cc2)c2ccccc12 [Compound 399] | < 5.30
44 | CCN(CCc1cnc2c(C(=O)CN3CCCCC3)c(C)n(-c3ccc(Cl)cc3)c2c1)S(C)(=O)=O [Compound 303, N-(2-(1-(4-Chlorophenyl)-2-methyl-3-(2-(piperidin-1-yl)acetyl)-1H-pyrrolo[3,2-b]pyridin-6-yl)ethyl)-N-ethylmethanesulfonamide] | > 6.30
45 | Cc1c(C(=O)CN2CCCCC2)c2ccc(CC(N)=O)cc2n1-c1ccc(C#N)cc1 [Compound 203, 2-(1-(4-Cyanophenyl)-2-methyl-3-(2-(piperidin-1-yl)acetyl)-1H-indol-6-yl)acetamide] | > 6.30
46 | Cc1c(C(=O)CN2CCCCC2)c2ccc(C(C)C)cc2n1-c1ccc(C#N)cc1 [Compound 180, 4-(6-Isopropyl-2-methyl-3-(2-(piperidin-1-yl)acetyl)-1H-indol-1-yl)benzonitrile] | > 6.30
47 | Cc1c(C(=O)CN2CCCCC2)c2ncc(Cl)cc2n1-c1ccc(C#N)cc1 [Compound 385] | > 6.30
48 | Cc1cnc2c(C(=O)CN3CCC(F)CC3)c(C)n(-c3ccc(C#N)cc3)c2c1 [Compound 190] | > 6.30
49 | COc1cc2c(C(=O)CN3CCCCC3)c(C)n(-c3ccc(C#N)cc3)c2cc1OC(F)(F)F [Compound 193] | 5.30 to 6.30
50 | Cc1c(C(=O)CN2CCCCC2)c2ncc(C(F)F)cc2n1-c1ccc(C#N)cc1 [Compound 301, 4-(6-(Difluoromethyl)-2-methyl-3-(2-(piperidin-1-yl)acetyl)-1H-pyrrolo[3,2-b]pyridin-1-yl)benzonitrile] | > 6.30
51 | CCOC(=O)CC1CCN(CC(=O)c2c(C)n(-c3ccc(C#N)cc3)c3cc(Br)cnc23)CC1 [Compound 365] | 5.30 to 6.30
52 | Cc1c(C(=O)CN2C[C@H](C)C[C@H](C)C2)c2ncc(Br)cc2n1-c1ccc(C#N)cc1 [Compound 338] | < 5.30
53 | Cc1[nH]c2cccnc2c1C(=O)CN1CCCCC1 [Compound 128, 1-(2-Methyl-1H-pyrrolo[3,2-b]pyridin-3-yl)-2-(piperidin-1-yl)ethan-1-one] | < 5.30
54 | 4-(2-Methyl-3-(2-(piperidin-1-yl)acetyl)-1H-indol-1-yl)benzonitrile [Compound 160] | > 6.30
